This note sets out measurements from patent US20220088031A1, “METHODS AND COMPOSITIONS FOR TREATING RESISTANT AND RECURRENT FORMS OF CANCER” (Health Research, Inc., priority 2019, published 2022).

The subject of experiment [1] is CC promoter activity in E006AA cells. Put plainly: Cytochrome c (CYCS) promoter reporter (luciferase) assay. Particulars: CYCS-Luc transfected cells, 24 hrs. Type of experiment: cell-based, human. Here is the method:
Cytochrome c (CYCS) promoter reporter assay: CYCS promoter reporter clone and empty pLightSwitch vector were purchased from SwitchGear Genomics, Menlo Park, Calif. (Cat #S721763). The reporter construct was prepared by cloning −1000 bp of CYCS promoter from the transcription initiation site. Plasmids were transformed in DH5a E. Coli strain and were isolated using a Zymo Plasmid MidiPrep kit (Zymo research, cat #D4200). The Nrf1 binding site in the p-CYCS-SwichGear-Luc construct was deleted using a QuickChange II XL site-directed mutagenesis kit (Agilent Technologies, Wilmington, Del. Cat #200521). LNCaP and E006AA cells were seeded in 96 well plates and transfected with either pLightSwitch empty vector or CYCS promoter reporter clones using a lipofectamine 3000 transfection kit (ThermoFisher Scientific, Waltham, Mass.). Cells were harvested after 48 hrs. Luciferase activity assay was performed using LightSwitch Assay Reagent (SwitchGear Genomics, Menlo Park, Calif. Cat #LS010).

The test system of experiment [2] is Nrf1 nuclear translocation in E006AA cells. Kind of experiment: Immunoblot analysis of Nrf1 in cytosolic and nuclear fractions. The experiment is classed as cell-based, human. Here is the method:
Subcellular fractionation for the preparation of cytosolic and nuclear fractions: Cells were seeded on 10 cm cell culture plates for treatment. Cells were harvested via gently scraping. Cells were collected using centrifugation and washed twice with ice cold PBS. Cells were resuspended in cytosolic buffer (10 mM HEPES, pH 7.4; 10 mM KCl; 0.1 mM EDTA; 0.1 mM EGTA) supplemented with freshly added 1× protease inhibitor cocktail and 1 mM DTT. Cells were incubated in cytosolic buffer for 15 min in ice and 10% NP40 was added (12.4 μl 10% NP40 per 200 μl volume of cytosolic buffer) followed by vigorous vortexing for 45 sec. Cell homogenates were centrifuged at 14000 rpm for 2 min. The supernatant was collected in new tubes and stored as the cytosolic fraction. The nuclear pellet was washed 3 times with cytosolic buffer and lysed in nuclear lysis buffer (10 mM HEPES, 500 mM NaCl, 1 mM EDTA, 1 mM EGTA, 1% NP40) to prepare nuclear extract. Immunoblotting: Immunoblotting was performed as described previously. Protein lysates were prepared using a lysis in NP-40 buffer (50 mM Tris-HCl pH 7.4, 150 mM NaCl, 1 mM EDTA, 1 mM EGTA, 1% NP-40) supplemented with protease and phosphatase inhibitor cocktail. Protein content was quantified using a micro BCA protein estimation kit (Thermo Scientific, Waltham, Mass.; Cat #23235). Protein samples were resolved on 4-20% Criterion gels, transferred on nitrocellulose membranes (BioRad, Hercules, Calif.) and subjected to immunoblotting. Membranes were blocked in 5% fat free dry milk (Blotto, Santa Cruz, Dallas, Tex.; Cat #sc-2324) prepared in PBS-T (Tween-20) and incubated overnight in primary antibodies (1:1000 dilution) at 4° C. with continuous shaking. After washing with PBS-T, membranes were incubated in HRP conjugated anti-mouse or anti-rabbit secondary antibody at room temperature for 1 hr. After washing with PBS-T, proteins were detected using Clarity chemiluminescent reagent (BioRad, Hercules, Calif.; Cat #1705061) and X-Ray films (ASI, Fort Lauderdale, Fla.; Cat #XR1570). Membranes were stripped using stripping buffer and probed with HRP conjugated beta-actin antibody to ensure equal loading of proteins.

The next experiment deals with E006AA hT xenografts. Kind of experiment: Human PCa xenograft study. The conditions noted are these: 3 weeks. The experiment is classed as in vivo, SCID mice. An excerpt: Human PCa xenograft study: SCID (C.B-Igh-1^b/IcrTac-Prkdc^[…]) mice (6 weeks old) were purchased from an in house colony maintained by Roswell Park Laboratory Animal Shared Resource. Animal protocols were approved by the Roswell Park Institutional Animal Care and Use Committee (IACUC protocol #1306M). E006AA hT cells (80% confluency) were harvested and live cells quantified. Harvested cells were washed and resuspended in serum-free DMEM/F-12 (1:1) mix. Four ×10^6 E006AA hT cells were mixed with Matrigel (1:1) and injected subcutaneously in the right and left flanks of each mouse. When xenograft tumors reached 5 mm in diameter (22 days post injection), mice were randomly divided into 6 groups of 4 mice. First group received 100 μl Neobee M5 oil (vehicle) and 100 μl normal saline each twice weekly. Second group received 100 μl Neobee M5 oil and DOC (6 mg/kg bw) twice weekly. Third group received 10058-F4 (20 mg/kg bw) and DOC (6 mg/kg bw) twice weekly. Fourth group received JSH-23 (3 mg/kg bw) and DOC (6 mg/kg bw) twice weekly. Fifth group received 10058-F4 (20 mg/kg bw) and normal saline twice weekly. Sixth group received JSH-23 (3 mg/kg bw) and normal saline twice weekly. All treatments were administered for 3 weeks. Mice were euthanized, tumors were excised and flash frozen in liquid nitrogen. The tissue lysates were used for caspase-3 activity and Western blotting of CC, cleaved PARP, and cleaved caspase-3 proteins.
Immunoblotting: Immunoblotting was performed as described previously. Protein lysates were prepared using a lysis in NP-40 buffer (50 mM Tris-HCl pH 7.4, 150 mM NaCl, 1 mM EDTA, 1 mM EGTA, 1% NP-40) supplemented with protease and phosphatase inhibitor cocktail. Protein content was quantified using a micro BCA protein estimation kit (Thermo Scientific, Waltham, Mass.; Cat #23235). Protein samples were resolved on 4-20% Criterion gels, transferred on nitrocellulose membranes (BioRad, Hercules, Calif.) and subjected to immunoblotting. Membranes were blocked in 5% fat free dry milk (Blotto, Santa Cruz, Dallas, Tex.; Cat #sc-2324) prepared in PBS-T (Tween-20) and incubated overnight in primary antibodies (1:1000 dilution) at 4° C. with continuous shaking. After washing with PBS-T, membranes were incubated in HRP conjugated anti-mouse or anti-rabbit secondary antibody at room temperature for 1 hr. After washing with PBS-T, proteins were detected using Clarity chemiluminescent reagent (BioRad, Hercules, Calif.; Cat #1705061) and X-Ray films (ASI, Fort Lauderdale, Fla.; Cat #XR1570). Membranes were stripped using stripping buffer and probed with HRP conjugated beta-actin antibody to ensure equal loading of proteins.
Caspase-3 (DEVDase) activity assay: PCa cell lysates prepared in NP40 lysis buffer were incubated with DEVD-AFC (caspase-3 substrate) at 37° C. for 90 min in caspase activity assay buffer (50 mM HEPES pH 7.4, 150 mM NaCl, 1% CHAPS, 1 mM EDTA, 1 mM DTT, 50% glycerol). Fluorescence intensity was detected using a Synergy microplate reader at excitation and emission wavelengths of 400 nm and 508 nm, respectively. Arbitrary fluorescence units were normalized with protein content of cell lysates and represented as fold change compared to control groups.
(In general: A xenograft is tissue or cells of one species grown in another, often human tumour cells in immunodeficient mice.)

Another experiment relates to E006AA cells. Put plainly: Mitochondrial ROS production, MitoSOX dye, flow cytometry. Type of experiment: cell-based, human.
Setting [3] is: in combination with DOC (6 mg/kg bw) twice weekly.
Where [4] appears, read: inhibitor alone, 10058-F4 20 mg/kg bw or JSH-23 3 mg/kg bw twice weekly.

For the compound `CCc1ccc(/C=C2/SC(=S)NC2=O)cc1` [c-Myc inhibitor, 10058-F4], in experiment [1], the “CYCS promoter activity (luciferase)” value is on record as “increased the CYCS promoter activity”. Besides, in experiment [2] (agent alone), the “translocation of Nrf1 to nucleus” value was “Enhanced translocation of Nrf1 to nucleus”. Moreover, the “translocation of Nrf1 to nucleus” value in experiment [2] (combined with DOC (24 hrs)) is “Enhanced translocation of Nrf1 to nucleus”. In the experiment on E006AA hT xenografts (setting [3]), the “CC expression in xenografts” value is recorded as “further upregulated”, the “PARP cleavage in xenografts” value is “PARP cleavage” and the “caspase-3 activation in xenografts” value is reported as “caspase-3 activation”. In the experiment with E006AA hT xenografts (setting [4]), the “CC expression in xenografts” value is recorded as “induced CC expression”.

As for “bisperoxovanadium 5-hydroxipyridine [AKT activator]”, in experiment [1], the “CYCS promoter activity (luciferase)” value is reported as “increased the CYCS promoter activity”. Further, the MitoROS production result in the experiment with E006AA cells (agent alone) and with E006AA cells (in combination with DOC) was “MitoROS production” each time. Besides, the “translocation of Nrf1 to nucleus” value in experiment [2] (agent alone) and in experiment [2] (combined with DOC (24 hrs)) was “Enhanced translocation of Nrf1 to nucleus” each time.

Regarding `Cc1ccc(NCCCc2ccccc2)c(N)c1` [NF-κB inhibitor, JSH-23], the “CYCS promoter activity (luciferase)” value in experiment [1] is “increased the CYCS promoter activity”. For the same compound, the MitoROS production result in the experiment with E006AA cells (agent alone) and in the experiment with E006AA cells (in combination with DOC) was “MitoROS production” each time. Further, the “translocation of Nrf1 to nucleus” value in experiment [2] (agent alone) and in experiment [2] (combined with DOC (24 hrs)) was “Enhanced translocation of Nrf1 to nucleus” in each case. In addition, the “CC expression in xenografts” value in the experiment on E006AA hT xenografts (setting [3]) was “further upregulated”; in the experiment with E006AA hT xenografts (setting [4]), “induced CC expression”. Moreover, the “PARP cleavage in xenografts” value in the experiment on E006AA hT xenografts (setting [3]) is given as “PARP cleavage”. In addition, in the experiment with E006AA hT xenografts (setting [3]), the “caspase-3 activation in xenografts” value is on record as “caspase-3 activation”.
